Activity calls are given as the source filed them. No cut-off for these calls is given here.
Columns and labels:
[1] = molecular target: T1, Metabotropic glutamate receptor 2 (Homo sapiens, UniProt Q14416); test: Positive allosteric modulation of human mGlu2 receptor expressed in CHO cells assessed as glutamate-induced [35S]GTPgammaS binding after 30 mins by liquid scintillation counting relative to glutamate; assay type: functional, cell-based
Target sequence in this assay (Q14416 19-872 limits assumed): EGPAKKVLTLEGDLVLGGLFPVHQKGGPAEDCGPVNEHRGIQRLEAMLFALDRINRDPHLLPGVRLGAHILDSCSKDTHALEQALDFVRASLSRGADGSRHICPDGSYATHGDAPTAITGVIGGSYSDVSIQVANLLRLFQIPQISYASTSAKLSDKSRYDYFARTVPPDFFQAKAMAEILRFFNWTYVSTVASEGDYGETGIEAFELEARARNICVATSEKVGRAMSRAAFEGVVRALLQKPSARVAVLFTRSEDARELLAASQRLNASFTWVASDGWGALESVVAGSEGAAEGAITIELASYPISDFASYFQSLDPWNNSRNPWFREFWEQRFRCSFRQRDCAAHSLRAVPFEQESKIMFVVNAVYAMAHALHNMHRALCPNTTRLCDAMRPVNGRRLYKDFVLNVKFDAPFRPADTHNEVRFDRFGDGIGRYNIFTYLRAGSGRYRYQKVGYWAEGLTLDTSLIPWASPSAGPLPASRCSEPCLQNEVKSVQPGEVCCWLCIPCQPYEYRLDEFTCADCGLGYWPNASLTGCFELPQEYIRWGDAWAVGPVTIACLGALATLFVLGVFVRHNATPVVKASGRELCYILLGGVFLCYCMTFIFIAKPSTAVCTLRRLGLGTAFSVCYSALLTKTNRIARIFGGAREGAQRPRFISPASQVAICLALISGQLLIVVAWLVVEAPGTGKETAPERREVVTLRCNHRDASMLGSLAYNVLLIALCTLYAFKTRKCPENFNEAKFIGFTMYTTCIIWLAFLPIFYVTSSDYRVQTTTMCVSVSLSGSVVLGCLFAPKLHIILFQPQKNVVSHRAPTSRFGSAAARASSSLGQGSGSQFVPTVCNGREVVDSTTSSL

[2] = Drug metabolism in human liver microsomes at 5 uM after 15 mins; assay type: ADME, Microsome; conditions: read-out: Drug metabolism
[3] = molecular target: T1, Metabotropic glutamate receptor 2; test: Positive allosteric modulation of human mGlu2 receptor expressed in CHO cells assessed as glutamate-induced [35S]GTPgammaS binding after 30 mins by liquid scintillation counting; assay type: functional, cell-based
Target sequence in this assay (Q14416 whole entry): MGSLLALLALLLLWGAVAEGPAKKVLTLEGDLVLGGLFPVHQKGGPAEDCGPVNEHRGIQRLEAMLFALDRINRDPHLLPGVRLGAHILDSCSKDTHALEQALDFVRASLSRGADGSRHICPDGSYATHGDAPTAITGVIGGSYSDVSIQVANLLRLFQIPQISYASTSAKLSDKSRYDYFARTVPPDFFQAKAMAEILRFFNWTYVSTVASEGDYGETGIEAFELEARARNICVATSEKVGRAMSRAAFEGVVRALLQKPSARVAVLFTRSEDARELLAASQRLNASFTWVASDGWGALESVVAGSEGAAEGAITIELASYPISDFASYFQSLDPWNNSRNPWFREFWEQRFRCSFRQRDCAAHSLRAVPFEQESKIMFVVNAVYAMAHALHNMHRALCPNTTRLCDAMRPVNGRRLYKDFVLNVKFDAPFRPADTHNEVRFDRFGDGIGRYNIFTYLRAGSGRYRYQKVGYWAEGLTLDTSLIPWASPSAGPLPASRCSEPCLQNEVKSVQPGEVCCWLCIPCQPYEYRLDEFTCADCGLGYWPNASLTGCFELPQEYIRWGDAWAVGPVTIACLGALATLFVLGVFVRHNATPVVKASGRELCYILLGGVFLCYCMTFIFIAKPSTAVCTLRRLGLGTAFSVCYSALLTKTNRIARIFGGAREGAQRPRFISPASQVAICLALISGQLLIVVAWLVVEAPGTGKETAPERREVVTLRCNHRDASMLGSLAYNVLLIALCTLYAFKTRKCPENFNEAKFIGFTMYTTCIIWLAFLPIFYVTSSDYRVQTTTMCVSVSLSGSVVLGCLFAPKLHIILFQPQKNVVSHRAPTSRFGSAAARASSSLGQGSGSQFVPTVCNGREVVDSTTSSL

CYP3A4 [4] = molecular target: T2, CYP3A4 (Homo sapiens, UniProt P08684); test: Inhibition of CYP3A4 at 5 uM; assay type: ADME
[5] = Aqueous solubility of the compound in 20% HP-beta-CD buffer at pH 4 to 7.4; assay type: physicochemical
[6] = Drug metabolism in rat liver microsomes at 5 uM after 15 mins; assay type: ADME, Microsome; conditions: read-out: Drug metabolism
[7] = Ratio of drug level in brain to plasma in Swiss mouse at 10 mg/kg, sc after 1 hr; assay type: ADME, organism-based; parameters: dose 10 mg/kg, route subcutaneous; conditions: read-out: BPR
[8] = Drug level in Swiss mouse brain at 10 mg/kg, sc after 0.5 hrs; assay type: ADME, organism-based; parameters: dose 10 mg/kg, route subcutaneous; conditions: read-out: Drug uptake
[9] = Drug level in Swiss mouse brain at 10 mg/kg, sc after 1 hr; assay type: ADME, organism-based; parameters: dose 10 mg/kg, route subcutaneous; conditions: read-out: Drug uptake
[10] = Drug level in Swiss mouse brain at 10 mg/kg, sc after 1.5 hrs; assay type: ADME, organism-based; parameters: dose 10 mg/kg, route subcutaneous; conditions: read-out: Drug uptake
Brain = test: Ratio of drug level in Swiss mouse brain at 10 mg/kg, sc after 1.5 hrs to drug level in Swiss mouse brain at 10 mg/kg, sc after 1 hr; assay type: ADME, organism-based; conditions: in vivo
hERG = hERG (Homo sapiens, UniProt Q12809); test: Inhibition of human ERG expressed in HEK293 cells assessed as whole cell current at 3 uM after 5 mins by automated patch-clamp assay relative to control; assay type: cell-based; conditions: HEK293 cells expressing hERG
Sequence of hERG (Q12809 whole entry): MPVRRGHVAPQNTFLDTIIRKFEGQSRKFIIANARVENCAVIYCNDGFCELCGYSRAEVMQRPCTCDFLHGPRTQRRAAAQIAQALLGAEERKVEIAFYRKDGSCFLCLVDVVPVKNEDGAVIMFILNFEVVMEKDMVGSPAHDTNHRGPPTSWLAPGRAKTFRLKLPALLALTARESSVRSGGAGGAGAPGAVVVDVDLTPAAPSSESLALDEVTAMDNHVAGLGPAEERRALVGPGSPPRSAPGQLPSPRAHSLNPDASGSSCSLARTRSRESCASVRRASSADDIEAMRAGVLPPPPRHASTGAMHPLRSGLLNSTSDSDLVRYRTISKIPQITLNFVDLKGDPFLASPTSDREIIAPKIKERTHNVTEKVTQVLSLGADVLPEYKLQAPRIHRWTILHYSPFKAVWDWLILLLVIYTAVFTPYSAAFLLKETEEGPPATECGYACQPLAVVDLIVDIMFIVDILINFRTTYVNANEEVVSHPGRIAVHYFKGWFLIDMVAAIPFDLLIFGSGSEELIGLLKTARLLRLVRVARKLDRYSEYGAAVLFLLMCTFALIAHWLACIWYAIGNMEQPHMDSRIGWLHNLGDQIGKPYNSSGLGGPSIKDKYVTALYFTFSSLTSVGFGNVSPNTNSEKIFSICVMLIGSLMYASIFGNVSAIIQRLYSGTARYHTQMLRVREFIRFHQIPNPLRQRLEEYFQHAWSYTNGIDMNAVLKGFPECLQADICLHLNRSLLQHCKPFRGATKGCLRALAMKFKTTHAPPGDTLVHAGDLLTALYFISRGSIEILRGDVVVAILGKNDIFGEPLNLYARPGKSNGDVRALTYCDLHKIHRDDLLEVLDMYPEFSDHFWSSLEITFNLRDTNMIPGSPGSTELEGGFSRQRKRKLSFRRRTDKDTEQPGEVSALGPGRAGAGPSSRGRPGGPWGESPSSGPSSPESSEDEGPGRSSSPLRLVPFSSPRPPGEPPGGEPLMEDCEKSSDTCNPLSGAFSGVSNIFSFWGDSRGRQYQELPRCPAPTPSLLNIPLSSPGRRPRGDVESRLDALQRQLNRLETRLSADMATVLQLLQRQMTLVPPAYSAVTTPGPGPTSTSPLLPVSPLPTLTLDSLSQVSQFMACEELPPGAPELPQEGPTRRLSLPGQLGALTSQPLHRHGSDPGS

CYP1A2 [11] = molecular target: T3, CYP1A2 (Homo sapiens, UniProt P05177); test: Inhibition of CYP1A2 at 5 uM; assay type: ADME
T3 sequence (P05177 whole entry): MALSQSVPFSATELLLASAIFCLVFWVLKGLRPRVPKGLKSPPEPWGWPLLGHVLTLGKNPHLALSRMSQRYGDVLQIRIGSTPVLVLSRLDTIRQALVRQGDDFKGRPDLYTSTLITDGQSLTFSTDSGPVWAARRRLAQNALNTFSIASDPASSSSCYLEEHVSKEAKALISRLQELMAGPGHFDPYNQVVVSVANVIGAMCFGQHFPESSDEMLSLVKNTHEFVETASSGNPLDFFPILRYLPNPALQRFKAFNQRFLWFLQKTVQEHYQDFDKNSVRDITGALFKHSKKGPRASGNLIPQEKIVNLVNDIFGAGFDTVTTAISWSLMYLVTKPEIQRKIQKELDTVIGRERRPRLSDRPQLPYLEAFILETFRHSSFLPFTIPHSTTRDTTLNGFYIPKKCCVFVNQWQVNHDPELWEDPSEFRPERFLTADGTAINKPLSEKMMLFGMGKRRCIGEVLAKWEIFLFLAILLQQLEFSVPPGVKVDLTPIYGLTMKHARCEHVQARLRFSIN

CYP2D6 [12] = molecular target: T4, CYP2D6 (Homo sapiens, UniProt P10635); test: Inhibition of CYP2D6 at 5 uM; assay type: ADME
CYP2C9 [13] = molecular target: T5, CYP2C9 (Homo sapiens, UniProt P11712); test: Inhibition of CYP2C9 at 5 uM; assay type: ADME
CYP2C19 [14] = molecular target: T6, CYP2C19 (Homo sapiens, UniProt P33261); test: Inhibition of CYP2C19 at 5 uM; assay type: ADME
[15] = molecular target: Metabotropic glutamate receptor 3 (Homo sapiens) (UniProt Q14832); test: Antagonist activity at human mGluR3 expressed in HEK293 cells by fluorescent Ca2+ assay; assay type: functional, cell-based
Sequence of Metabotropic glutamate receptor 3 (Homo sapiens) (Q14832 23-879 limits assumed): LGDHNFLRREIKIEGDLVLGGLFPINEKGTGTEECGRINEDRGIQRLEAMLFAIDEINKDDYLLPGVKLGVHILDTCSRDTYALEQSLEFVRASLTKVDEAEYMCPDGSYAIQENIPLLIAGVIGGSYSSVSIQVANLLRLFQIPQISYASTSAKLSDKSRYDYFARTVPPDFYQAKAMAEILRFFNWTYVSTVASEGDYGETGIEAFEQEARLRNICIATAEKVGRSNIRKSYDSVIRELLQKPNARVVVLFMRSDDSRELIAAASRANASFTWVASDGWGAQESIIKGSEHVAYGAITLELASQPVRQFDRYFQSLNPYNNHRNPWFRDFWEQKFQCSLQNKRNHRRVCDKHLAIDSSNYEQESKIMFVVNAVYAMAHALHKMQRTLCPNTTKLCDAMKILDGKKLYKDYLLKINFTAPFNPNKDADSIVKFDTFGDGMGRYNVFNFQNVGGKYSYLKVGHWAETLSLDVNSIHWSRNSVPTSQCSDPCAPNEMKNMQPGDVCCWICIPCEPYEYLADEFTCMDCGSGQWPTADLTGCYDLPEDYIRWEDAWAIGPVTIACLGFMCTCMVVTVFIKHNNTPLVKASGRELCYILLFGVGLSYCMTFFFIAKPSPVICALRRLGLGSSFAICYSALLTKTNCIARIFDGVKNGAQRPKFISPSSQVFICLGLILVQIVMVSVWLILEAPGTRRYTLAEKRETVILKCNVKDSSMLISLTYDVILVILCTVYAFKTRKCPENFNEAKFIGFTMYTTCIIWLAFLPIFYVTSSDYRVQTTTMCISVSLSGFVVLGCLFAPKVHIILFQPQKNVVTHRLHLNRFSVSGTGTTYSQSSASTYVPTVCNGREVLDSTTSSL

[16] = molecular target: Sodium-dependent noradrenaline transporter (Homo sapiens) (UniProt P23975); test: Binding affinity to norepinephrine transporter at 10 uM
[17] = molecular target: Metabotropic glutamate receptor 6 (Rattus norvegicus) (UniProt P35349); test: Antagonist activity at rat mGluR6 expressed in CHO cells by [35S]GTPgammaS binding assay; assay type: functional, cell-based
[18] = molecular target: Metabotropic glutamate receptor 3 (Homo sapiens) (UniProt Q14832); test: Agonist activity at human mGluR3 expressed in HEK293 cells by fluorescent Ca2+ assay; assay type: functional, cell-based
[19] = molecular target: Metabotropic glutamate receptor 6 (Rattus norvegicus) (UniProt P35349); test: Agonist activity at rat mGluR6 expressed in CHO cells by [35S]GTPgammaS binding assay; assay type: functional, cell-based
Rattus norvegicus [20] = test: Effect on sleep-awake cycle in Sprague-Dawley rat EEG model assessed as light sleep time at 10 mg/kg, sc by sleep-wake electroencephalogram assay; assay type: functional, organism-based; parameters: dose 10 mg/kg
Rattus norvegicus [21] = test: Inhibition of rapid eye movement sleep in Sprague-Dawley rat EEG model at 10 mg/kg, sc up to 2 hrs by sleep-wake electroencephalogram assay; assay type: functional, organism-based; parameters: dose 10 mg/kg
[22] = molecular target: Metabotropic glutamate receptor 5 (Homo sapiens) (UniProt P41594); test: Antagonist activity at human mGluR5 expressed in HEK293 cells by fluorescent Ca2+ assay; assay type: functional, cell-based
[23] = molecular target: Metabotropic glutamate receptor 4 (Homo sapiens) (UniProt Q14833); test: Agonist activity at human mGluR4 expressed in L929 cells by [35S]GTPgammaS binding assay; assay type: functional, cell-based
Sequence of Metabotropic glutamate receptor 4 (Homo sapiens) (Q14833 whole entry): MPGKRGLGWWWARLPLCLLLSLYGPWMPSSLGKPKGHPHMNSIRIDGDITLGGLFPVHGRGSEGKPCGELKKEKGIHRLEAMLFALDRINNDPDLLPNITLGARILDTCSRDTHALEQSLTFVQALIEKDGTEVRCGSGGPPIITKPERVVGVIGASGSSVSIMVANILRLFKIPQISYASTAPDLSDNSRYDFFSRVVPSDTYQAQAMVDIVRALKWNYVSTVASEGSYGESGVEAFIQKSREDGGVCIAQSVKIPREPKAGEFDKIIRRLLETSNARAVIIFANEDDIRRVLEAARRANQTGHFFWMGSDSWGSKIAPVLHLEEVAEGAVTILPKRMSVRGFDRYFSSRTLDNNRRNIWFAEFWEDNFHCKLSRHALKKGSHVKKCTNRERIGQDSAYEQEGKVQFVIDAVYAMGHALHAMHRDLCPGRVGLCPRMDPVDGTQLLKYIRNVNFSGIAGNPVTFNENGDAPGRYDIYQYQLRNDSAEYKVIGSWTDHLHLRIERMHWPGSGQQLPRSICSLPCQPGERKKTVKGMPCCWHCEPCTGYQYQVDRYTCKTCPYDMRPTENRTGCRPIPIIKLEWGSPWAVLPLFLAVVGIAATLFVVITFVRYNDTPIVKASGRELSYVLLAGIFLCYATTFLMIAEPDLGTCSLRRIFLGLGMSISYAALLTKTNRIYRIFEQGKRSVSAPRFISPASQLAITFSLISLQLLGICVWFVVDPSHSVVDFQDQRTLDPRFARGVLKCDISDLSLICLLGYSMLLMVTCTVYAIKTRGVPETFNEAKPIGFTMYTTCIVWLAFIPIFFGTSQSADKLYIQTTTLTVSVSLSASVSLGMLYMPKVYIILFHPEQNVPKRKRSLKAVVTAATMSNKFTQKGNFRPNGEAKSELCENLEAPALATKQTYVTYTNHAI

Rattus norvegicus [24] = test: Effect on sleep-awake cycle in Sprague-Dawley rat EEG model assessed as increase of REM sleep onset latency at 10 mg/kg, sc by sleep-wake electroencephalogram assay; assay type: functional, organism-based; parameters: dose 10 mg/kg
Rattus norvegicus [25] = test: Effect on sleep-awake cycle in Sprague-Dawley rat EEG model assessed as intermediate state of sleep time at 10 mg/kg, sc by sleep-wake electroencephalogram assay; assay type: functional, organism-based; parameters: dose 10 mg/kg
Rattus norvegicus [26] = test: Effect on sleep-awake cycle in Sprague-Dawley rat EEG model assessed as active awake time at 10 mg/kg, sc by sleep-wake electroencephalogram assay; assay type: functional, organism-based; parameters: dose 10 mg/kg
[27] = molecular target: Metabotropic glutamate receptor 1 (Homo sapiens) (UniProt Q13255); test: Agonist activity at human mGluR1 expressed in HEK293 cells by fluorescent Ca2+ assay; assay type: functional, cell-based
[28] = molecular target: Metabotropic glutamate receptor 4 (Homo sapiens) (UniProt Q14833); test: Antagonist activity at human mGluR4 expressed in L929 cells by [35S]GTPgammaS binding assay; assay type: functional, cell-based
Rattus norvegicus [29] = test: Effect on sleep-awake cycle in Sprague-Dawley rat EEG model assessed as passive wake time at 10 mg/kg, sc by sleep-wake electroencephalogram assay; assay type: functional, organism-based; parameters: dose 10 mg/kg
[30] = molecular target: Metabotropic glutamate receptor 5 (Homo sapiens) (UniProt P41594); test: Agonist activity at human mGluR5 expressed in HEK293 cells by fluorescent Ca2+ assay; assay type: functional, cell-based
[31] = molecular target: Metabotropic glutamate receptor 1 (Homo sapiens) (UniProt Q13255); test: Antagonist activity at human mGluR1 expressed in HEK293 cells by fluorescent Ca2+ assay; assay type: functional, cell-based
[32] = molecular target: T1, Metabotropic glutamate receptor 2; test: Positive allosteric modulation of human mGlu2 receptor expressed in CHO cells assessed as fold shift in glutamate-induced [35S]GTPgammaS binding at 3 uM after 30 mins by liquid scintillation counting; assay type: functional, cell-based
Target sequence in this assay (Q14416 19-872 limits assumed): as the sequence (Q14416 19-872 limits assumed) above

Rattus norvegicus [33] = test: Effect on sleep-awake cycle in Sprague-Dawley rat EEG model assessed as deep sleep time at 10 mg/kg, sc by sleep-wake electroencephalogram assay; assay type: functional, organism-based; parameters: dose 10 mg/kg
CYP3A4 [34] = molecular target: T2, CYP3A4; test: Inhibition of CYP3A4 at 1 uM; assay type: ADME
[35] = Aqueous solubility of the compound in 20% HP-beta-CD buffer at pH 4; assay type: physicochemical
CYP2D6 [36] = molecular target: T4, CYP2D6; test: Inhibition of CYP2D6 at 1 uM; assay type: ADME
CYP2C19 [37] = molecular target: T6, CYP2C19; test: Inhibition of CYP2C19 at 1 uM; assay type: ADME
CYP2C9 [38] = molecular target: T5, CYP2C9; test: Inhibition of CYP2C9 at 1 uM; assay type: ADME
CYP1A2 [39] = molecular target: T3, CYP1A2; test: Inhibition of CYP1A2 at 1 uM; assay type: ADME

In the case of `CC(C)CCn1ccc(-c2ccc(Oc3ccccc3)cc2)c(C#N)c1=O`, the Emax [1] is reported as 188%, the metabolised at 0.25 h, 5 µM [2] is reported as 36% and the EC50 [3] is reported as 42 nM. The inhibition at 5 µM (CYP3A4 [4]) was less than 50%, the solubility [5] was greater than 1 µg/mL and the metabolised at 0.25 h, 5 µM [6] was 32%.

`CCCCn1ccc(-c2ccc(Oc3ccnc(C)c3)cc2)c(C#N)c1=O` showed a Kp at 1 h [7] of 0.5, an Emax [1] of 243% and a concentration at 0.5 h [8] of 1160 ng/g. The metabolised at 0.25 h, 5 µM [2] was 31%, the concentration at 1 h [9] was 994 ng/g and the concentration at 1.5 h [10] was 592 ng/g. For the same compound, the Ratio (Brain) was 2, the inhibition at 5 min, 3 µM (hERG) was 53% and the metabolised at 0.25 h, 5 µM [6] was 44%.

Work on `Cc1cc(Oc2ccc(-c3ccn(CCC(C)C)c(=O)c3C#N)cc2)ccn1` yielded an Emax [1] of 266%, an inhibition at 5 µM (CYP1A2 [11]) of less than 50% and an inhibition at 5 µM (CYP2D6 [12]) of less than 50%. For the same compound, the metabolised at 0.25 h, 5 µM [2] was 61%, the EC50 [3] was 447 nM and the inhibition at 5 µM (CYP2C9 [13]) was less than 50%. It also gave a metabolised at 0.25 h, 5 µM [6] of 47% and an inhibition at 5 µM (CYP2C19 [14]) of less than 50%.

For `CCCCn1ccc(-c2ccc(Oc3ccnc(C)c3)c(F)c2)c(C#N)c1=O`, the Activity [15] was “inactive”, the Kp at 1 h [7] was 0.6 and the Emax [1] was 233%. For the same compound, the Activity [16] was greater than 50%, the Activity [17] was “inactive” and the concentration at 0.5 h [8] was 1280 ng/g. The Activity [18] was “inactive”, the metabolised at 0.25 h, 5 µM [2] was 33% and the EC50 [3] was 316 nM. The Activity [19] was “inactive”, the Activity (Rattus norvegicus [20]) was “inactive” and the inhibition (Rattus norvegicus [21]) was “Active”. The Activity [22] was “inactive”, the Activity [23] was “inactive” and the concentration at 1 h [9] was 1120 ng/g. The concentration at 1.5 h [10] was 1020 ng/g, the Activity (Rattus norvegicus [24]) was “Active” and the Activity (Rattus norvegicus [25]) was “inactive”. For the same compound, the Activity (Rattus norvegicus [26]) was “inactive”, the Activity [27] was “inactive” and the Activity [28] was “inactive”. For the same compound, the Activity (Rattus norvegicus [29]) was “inactive”, the inhibition at 5 min, 3 µM (hERG) was 21% and the Activity [30] was “inactive”. For the same compound, the Activity [31] was “inactive”, the metabolised at 0.25 h, 5 µM [6] was 50% and the fold change (FC) [32] was 11. For the same compound, the Activity (Rattus norvegicus [33]) was “inactive”.

In the case of `CC(C)CCn1ccc(-c2ccc(Oc3ccncc3)cc2)c(C#N)c1=O`, the Emax [1] is reported as 245%, the metabolised at 0.25 h, 5 µM [2] is reported as 27% and the inhibition at 1 µM (CYP3A4 [34]) is reported as 70%. The EC50 [3] was 550 nM, the solubility [35] was no less than 4000 µg/mL and the inhibition at 1 µM (CYP2D6 [36]) was 84%. For the same compound, the inhibition at 1 µM (CYP2C19 [37]) was 97%, the inhibition at 5 min, 3 µM (hERG) was 52% and the inhibition at 1 µM (CYP2C9 [38]) was 82%. The metabolised at 0.25 h, 5 µM [6] was 41% and the inhibition at 1 µM (CYP1A2 [39]) was 80%.

Reference: ChEMBL document CHEMBL2029212, “Discovery of 1,4-disubstituted 3-cyano-2-pyridones: a new class of positive allosteric modulators of the metabotropic glutamate 2 receptor” (J Med Chem, 2012)
